Results published in PubChem BioAssay AID1996.
≈ marks a conversion by molar mass, not a printed value.

details: buffer; pH 7.4; 200.0 µM

| SMILES | solubility kinetic [µg/mL] |
| --- | --- |
| CCOC(=O)c1c(N)sc2c1CCCC2=O | 34.7 (≈ 145 µM) |
| Nc1ncnc2c1ncn2CCc1ccccc1 | > 35.9 |
| O=c1c2cc([N+](=O)[O-])ccc2nc2n1CCCC2 | > 36.8 |
| Cc1[nH]c(=O)c(C#N)c(C)c1CSc1ncccn1 | > 40.8 |
| O=C(CSc1ccccc1F)NCCN1C(=O)CSC1=O | 48.1 (≈ 146 µM) |
| Cc1cc(NC(=O)CSc2ncccc2C(=O)O)no1 | > 44 |
| CC1(C)CC2(CCO1)OC(=O)CC2C(=O)Nc1c(Cl)cccc1Cl (stereo unspecified) | 52.9 (≈ 142 µM) |
| COc1ccc(C(=O)/C=C2/C(=O)Nc3ccccc32)c(OC)c1 | 12.7 (≈ 41.1 µM) |
| O=C(O)/C=C/c1ccc(S(=O)(=O)Nc2cccnc2)cc1 | > 45.6 |
| CN1CCN(c2oc(/C=C/c3ccccc3)nc2C#N)CC1 | 40.3 (≈ 137 µM) |
| C/C=C(\C)CN1CCCC(CO)(Cc2ccccc2)C1 (stereo unspecified) | 34.3 (≈ 125 µM) |
| O=C(CNS(=O)(=O)c1ccccc1)N1CCc2ccccc2C1 | > 49.6 |
| COc1ccc(Cl)cc1NC(=S)NC1CCCC1 | 3 (≈ 10.5 µM) |
| O=C1N=c2ccccc2=C1c1sc(Nc2cccc(O)c2)nc1O | 0.7 (≈ 2.07 µM) |
| CCOC(=O)C1CCN(C(=O)COC(=O)C23CC4CC(CC(C4)C2)C3)CC1 | 50.7 (≈ 134 µM) |
| O=S(=O)(NCCc1ccccn1)c1ccc(OC(F)(F)F)cc1 | 51.9 (≈ 150 µM) |
| CCN1CCN(C(=O)C(=O)c2c(C)[nH]c3ccccc23)CC1 | 36.1 (≈ 121 µM) |
| O=C(CCN1C(=O)c2ccccc2C1=O)NCc1ccccc1 | > 46.3 |
| Cc1onc(-c2ccccc2)c1C(=O)NCc1cccc(Cl)c1 | 1.1 (≈ 3.37 µM) |
| O=C(O)CCCCCNC(=O)/C(=C\c1ccco1)NC(=O)c1ccco1 | 44.3 (≈ 123 µM) |
| COc1cccc(OC)c1C(=O)Nc1ccc2nc(C)c(C)nc2c1 | 4.5 (≈ 13.3 µM) |
| COCCCNc1nc(N)c([N+](=O)[O-])c(NCc2ccccc2)n1 | 7.4 (≈ 22.3 µM) |
| COc1ccccc1NC(=S)N1CC(C)(C)C1=O | 3 (≈ 11.3 µM) |
| CC1SCC(=O)N(CC(=O)NC2CCCCC2)C1=O (stereo unspecified) | 37.9 (≈ 133 µM) |
| Cc1sc(NC(=O)COc2ccccc2)c(C#N)c1C | 0.5 (≈ 1.75 µM) |

| SMILES | solubility kinetic [µg/mL] |
| --- | --- |
| O=C(NCc1ccccc1)c1ccc(NC(=O)C2CCCO2)cc1 (stereo unspecified) | > 48.7 |
| CC1CCCCC12NC(=O)N(CC(=O)NCCc1ccccc1)C2=O (stereo unspecified) | > 51.5 |
| Cc1onc(-c2ccccc2)c1C(=O)NC(C)c1ccccc1 (stereo unspecified) | 4.9 (≈ 16 µM) |
| COc1ccc(Cl)cc1N1C(=O)c2cccnc2C1=O | > 43.3 |
| O=C(CCc1ccccc1)NCc1ccncc1 | > 36 |
| O=C(COc1cccnc1[N+](=O)[O-])Nc1cccc(Br)c1 | 2.7 (≈ 7.67 µM) |
| CCCCCC(=O)Oc1cccc(N2C(=O)C3CCCCC3C2=O)c1 (stereo unspecified) | 4.3 (≈ 12.5 µM) |
| O=C(Oc1ccc(Cl)cc1)N1CCOCC1 | > 36.3 |
| NC(=O)CSc1nnc(Cc2ccc3c(c2)OCO3)o1 | > 44 |
| Cc1cc(C)c(S(=O)(=O)Nc2cc(C)on2)c(C)c1 | 37.2 (≈ 133 µM) |
| O=C(Nc1ccccc1)c1ccc(-c2ccc([N+](=O)[O-])cc2)o1 | 7.4 (≈ 24 µM) |
| COCCNc1nc(N)c([N+](=O)[O-])c(N2CCCCCC2)n1 | 6.3 (≈ 20.3 µM) |
| Cc1cc(NC(=O)C(C)C)ncc1NC(=O)c1ccco1 | > 43.1 |
| c1cc2c3c(cccc3c1)C(N1CCOCC1)=N2 | 34.8 (≈ 146 µM) |
| CCCC(=O)Nc1ccc2c(c1)COC2=O | 18.5 (≈ 84.4 µM) |
| CCOc1ccc(Nc2ncnc3ccc([N+](=O)[O-])cc23)cc1 | 4.1 (≈ 13.2 µM) |
| COc1ccc(N2C(=O)[C@@H]3C(c4cccnc4)=NO[C@@H]3C2=O)cc1 | 45 (≈ 139 µM) |
| Cc1cc(C)nc(SCc2cn3ccccc3n2)n1 | > 40.6 |
| Cc1ccc(CCNC(=O)CNC(=O)c2cccs2)cc1 | 40.3 (≈ 133 µM) |
| CCOC(=O)c1cccc(NC(=O)c2cc3ccccc3o2)c1 | 0.7 (≈ 2.26 µM) |
| COc1cccc(C(CNC(=O)c2ccc(Cl)c(S(=O)(=O)N3CCCC3)c2)N(C)C)c1 (stereo unspecified) | > 69.9 |
| O=C(CSC(=S)N1CCCC1)Nc1cc2c(cc1Br)OCCO2 | < 0.4 |
| COC(=O)Cn1cc(C(=O)c2ccccc2F)c2ccccc21 | 32.4 (≈ 104 µM) |
| COc1ccccc1N(C)S(=O)(=O)c1ccc(C(=O)Nc2cccc(Br)c2)cc1 | 3 (≈ 6.31 µM) |
| CCC1CCCCN1C(=O)/C=C/c1ccc2c(c1)OCO2 (stereo unspecified) | > 43.1 |

| SMILES | solubility kinetic [µg/mL] |
| --- | --- |
| O=C(c1cc(N2CCOCC2)c(F)cc1[N+](=O)[O-])N1CCOCC1 | 48 (≈ 141 µM) |
| COc1cccc(NC(=O)NCc2ccccn2)c1 | > 38.6 |
| COC(=O)c1sccc1NC(=O)c1ccc(OC)c([N+](=O)[O-])c1 | < 0.4 |
| COc1ccccc1CNC(=O)CSc1n[nH]c(N)n1 | > 44 |
| CC1(C)CC2(CCO1)C(Nc1ccccc1)=NC(=S)N2c1ccccc1 (stereo unspecified) | < 0.3 |
| O=C(Cc1ccccc1)NCC(=O)OCc1ccccc1F | 17.3 (≈ 57.4 µM) |
| COc1ccccc1NC(=O)Nc1ccncc1 | 16.5 (≈ 67.8 µM) |
| CN1C(=O)c2ccccc2N(C)C1c1cccc(O)c1 (stereo unspecified) | 38.1 (≈ 142 µM) |
| CN(C)S(=O)(=O)c1cccc(C(=O)NC2CCSc3ccccc32)c1 (stereo unspecified) | 4.8 (≈ 12.7 µM) |
| COCCN(CCOC)C(=O)N1CCOCC1 | > 36.9 |
| COc1ccc(CNc2nccs2)cc1OC | > 37.5 |
| Cc1ccc(C)c(S(=O)(=O)Nc2ccc3[nH]c(=O)[nH]c3c2)c1 | 10.4 (≈ 32.8 µM) |
| COC(=O)c1cc(S(=O)(=O)N2CCCC2)c(Cl)cc1Cl | 41.8 (≈ 124 µM) |
| CCOc1ccc(CNc2ccc(N3CCN(Cc4ccccc4)CC3)cc2)cc1 | 0.9 (≈ 2.24 µM) |
| Cc1cc(C(=O)Nc2ccc3c(c2)CCC3)ccc1[N+](=O)[O-] | < 0.3 |
| CS(=O)(=O)Nc1cc2c3c(c1)CCC(=O)N3CCC2 | 39.9 (≈ 142 µM) |
| Cc1ccc(NC(=O)COC(=O)C2CC2)cc1Cl | 35.6 (≈ 133 µM) |
| Cc1ccsc1-c1nc(CN2CCN(C)C(=O)[C@@H]2C)c(C)o1 | 40 (≈ 125 µM) |
| Clc1nn2cnnc2c2ccccc12 | > 30.7 |
| Cc1c(C(=O)N2CCOCC2)sc(NC(=O)CCl)c1C#N | > 49.2 |
| Cc1csc(SCC(=O)Nc2nncs2)n1 | > 40.9 |
| Cc1nc(N)sc1C(=O)OCC(C)C | > 32.1 |
| COc1ccc(CNC(=O)CN2C(=O)NC3(CCCCCC3)C2=O)cc1 | > 53.9 |
| Cc1ccc(-c2cc(C(=O)N3CCC(C)CC3)c3ccccc3n2)cc1 | 6.6 (≈ 19.2 µM) |
| S=c1[nH]ccn1-c1ccc(Cl)cc1 | 29.2 (≈ 139 µM) |

| SMILES | solubility kinetic [µg/mL] |
| --- | --- |
| Cl.Clc1cccc(N2CCNCC2)c1 | > 35 |
| Cc1cc(C(=O)O)ccc1NCc1ccncc1 | > 36.3 |
| O=C(c1ccc2c(c1)OCO2)C1CCCN(Cc2ccccn2)C1 (stereo unspecified) | 32.8 (≈ 101 µM) |
| Cc1ccc(S(=O)(=O)N2CC(O)CC2C(=O)O)cc1 (stereo unspecified) | > 42.8 |
| Nc1ccccc1OCCOc1ccccc1N | > 36.6 |
| Cc1ccc2c(c1)c(=O)c1c3n2CCN(CC#N)C3CC1 (stereo unspecified) | 37.7 (≈ 135 µM) |
| COc1ccc(OC)c(C(O)C2CCCCN2)c1.Cl (stereo unspecified) | > 43.2 |
| COc1ccc(CNC(=S)Nc2cccc(OC)c2)cc1 | 41.1 (≈ 136 µM) |
| COc1ccc(NC(=O)c2ccccc2NC(=O)c2ccco2)cc1 | < 0.4 |
| CC1CC(C)CN(C(=O)COC(=O)COc2ccc(C#N)cc2)C1 (stereo unspecified) | 43.5 (≈ 132 µM) |
| O=C(COC(=O)Cc1c[nH]c2ccccc12)Nc1cc(S(=O)(=O)N2CCOCC2)ccc1Cl | 12.7 (≈ 25.8 µM) |
| Cc1ccc(C(=O)NC2CCCC2)s1 | 29.9 (≈ 143 µM) |
| COc1ccc(S(=O)(=O)N2CCC(C(=O)Oc3cccc(C)c3)CC2)cc1OC | < 0.9 |
| COc1ccc(S(=O)(=O)n2cnc3ccccc32)cc1.Cl | > 48.7 |
| O=[N+]([O-])c1ccc(N2CCCCC2)cc1 | 19.9 (≈ 96.5 µM) |
| COC(=O)c1cc(S(=O)(=O)N(C)C2CCCCC2)oc1C | 37.5 (≈ 119 µM) |
| CNc1nc2c(c(=O)n(C)c(=O)n2C)n1CCCc1ccccc1 | > 49.1 |
| CCO/C([O-])=N/c1c[n+](N2CCOCC2)no1 | > 36.3 |
| CCCN1CCC(NC(=O)Cc2ccccc2C)CC1 | 33.4 (≈ 122 µM) |
| CC1CC(C)CN(CC(=O)c2c[nH]c3ccccc23)C1 (stereo unspecified) | 37.8 (≈ 140 µM) |
| O=C(COC(=O)CN1C(=O)C2CCCCC2C1=O)Nc1ccc(F)c(F)c1F (stereo unspecified) | > 59.8 |
| COc1ccccc1NC(=O)c1c[nH]c2ccccc12 | > 39.9 |
| O=S(=O)([O-])CCC[N+]1(CC#Cc2ccccc2)CCCCC1 | > 48.2 |
| Oc1ccc(-c2csc(Nc3ccccn3)n2)cc1O | 11.3 (≈ 39.6 µM) |
| Cc1nsc2nc3c(F)c(F)c(F)c(F)c3cc12 | 4.4 (≈ 16.2 µM) |

| SMILES | solubility kinetic [µg/mL] |
| --- | --- |
| COc1cc(C(=O)OCC(=O)NC2CCCCC2)cc(OC)c1OC | > 52.7 |
| O=C1OCc2ccc(NC(=O)C3CC3)cc21 | > 32.6 |
| COC(=O)c1cc(NC(=O)Cc2cccs2)cc(C(=O)OC)c1 | 19.5 (≈ 58.5 µM) |
| Oc1c(CN2CCCC(C(F)(F)F)C2)cc(Cl)c2ccccc12 (stereo unspecified) | 4.1 (≈ 11.9 µM) |
| C=CCN1C(=O)c2ccc(C(=O)N3CCC(C(N)=O)CC3)cc2C1=O | 47.9 (≈ 140 µM) |
| N#C/C(=C(/O)c1cccc(F)c1)c1nc2ccccc2s1 | 17.8 (≈ 60.1 µM) |
| Cc1ccsc1-c1nc(CN2CCCC2c2ccc(F)cc2)c(C)o1 (stereo unspecified) | 14.9 (≈ 41.8 µM) |
| S=C(Nc1ccccc1)NC1CCN(Cc2ccccc2)CC1 | > 48.8 |
| CC1(C)OC(=O)C(=NNc2ccc(C(=O)O)cc2)C(=O)O1 | > 43.8 |
| CSc1ccc(Cl)c(C(=O)OCC(=O)N(C)CCC#N)c1 | > 49 |
| Cc1cc(Nc2ccc(O)cc2)n2c(nc3ccccc32)c1C#N | 0.9 (≈ 2.86 µM) |
| CC(C)Cn1c(=O)c2c(nc3n2CCS3)n(C)c1=O | > 42.1 |
| NC(=O)Cc1nc(-c2ccc(F)cc2)cs1 | > 35.4 |
| O=C(Cc1ccccc1[N+](=O)[O-])Nc1ccc2c(c1)OCO2 | 14.6 (≈ 48.6 µM) |
| Nc1ccc(-c2ccc(N)c(C(=O)O)c2)cc1C(=O)O | > 40.8 |
| CCOC(=O)C1=C(O)C(=O)N(c2ccccc2)C1c1cccc([N+](=O)[O-])c1 (stereo unspecified) | 52 (≈ 141 µM) |
| COC(=O)CC1C(=O)NCCN1C(=O)c1cc([N+](=O)[O-])ccc1Cl (stereo unspecified) | 52.9 (≈ 149 µM) |
| CC(C)(C)NC(=O)C1CCN(C(=O)c2ccco2)CC1 | 41.2 (≈ 148 µM) |
| CCC1(CC)N=C(c2ccccc2)C(=S)N1 | > 34.9 |
| Cc1ccc(NS(=O)(=O)c2ccc(C)c(NC(=S)NCCN3CCOCC3)c2)c(C)c1 | > 69.4 |
| O=C(NCc1ccccc1)c1ccc[n+]([O-])c1 | > 34.2 |
